From PMC5615129 (Toxicology Reports, 2017) come the findings set out here.

The structures appear in SMILES notation.

This assay has as its target T1, aromatase (CYP19) (Homo sapiens, UniProt P11511).
T1 sequence (P11511 1-503): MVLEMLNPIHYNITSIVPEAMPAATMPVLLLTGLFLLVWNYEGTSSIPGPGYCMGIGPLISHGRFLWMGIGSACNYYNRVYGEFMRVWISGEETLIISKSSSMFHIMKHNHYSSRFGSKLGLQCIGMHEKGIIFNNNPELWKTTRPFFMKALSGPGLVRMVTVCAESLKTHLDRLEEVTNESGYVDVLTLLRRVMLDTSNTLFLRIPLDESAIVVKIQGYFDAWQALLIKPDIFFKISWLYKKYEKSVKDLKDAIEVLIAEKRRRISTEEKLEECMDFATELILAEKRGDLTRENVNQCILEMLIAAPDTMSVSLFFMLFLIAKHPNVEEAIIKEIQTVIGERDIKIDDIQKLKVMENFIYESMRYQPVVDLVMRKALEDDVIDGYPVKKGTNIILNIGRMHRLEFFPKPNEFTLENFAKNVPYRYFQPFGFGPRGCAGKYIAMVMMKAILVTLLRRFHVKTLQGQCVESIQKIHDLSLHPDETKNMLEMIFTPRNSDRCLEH
The class given is cell-based.

By IC50 is commonly meant the concentration that inhibits the measured activity by half. High values mean a need for much substance, low ones inhibition by little substance. For the compound `C/C=C(\C)c1cc(O)c(C)c2c1Oc1cc(O)cc(C)c1C(=O)O2` [UNG, unguinol], the IC50 was 9.73 µM.
